We go through three compounds from patent US20110237659A1, “CHROMENONE DERIVATIVES AS TRPV3 ANTAGONISTS” (GLENMARK PHARMACEUTICALS S.A., priority 2008, published 2011).

Usually inhibition stands for the relative decrease from the control value, in per cent. Broadly, the pIC50 is the negative decadic logarithm of the IC50, by convention in mol/L.

pIC50: −log10 of the molar value. Where only a bound is given, the exact number is not on record here.

The target of this assay is T1, Human TRPV3 (Homo sapiens, UniProt Q8NET8).
T1 construct: expressed in transfected cells; host or cells: CHO cells
T1 sequence (Q8NET8 1-790): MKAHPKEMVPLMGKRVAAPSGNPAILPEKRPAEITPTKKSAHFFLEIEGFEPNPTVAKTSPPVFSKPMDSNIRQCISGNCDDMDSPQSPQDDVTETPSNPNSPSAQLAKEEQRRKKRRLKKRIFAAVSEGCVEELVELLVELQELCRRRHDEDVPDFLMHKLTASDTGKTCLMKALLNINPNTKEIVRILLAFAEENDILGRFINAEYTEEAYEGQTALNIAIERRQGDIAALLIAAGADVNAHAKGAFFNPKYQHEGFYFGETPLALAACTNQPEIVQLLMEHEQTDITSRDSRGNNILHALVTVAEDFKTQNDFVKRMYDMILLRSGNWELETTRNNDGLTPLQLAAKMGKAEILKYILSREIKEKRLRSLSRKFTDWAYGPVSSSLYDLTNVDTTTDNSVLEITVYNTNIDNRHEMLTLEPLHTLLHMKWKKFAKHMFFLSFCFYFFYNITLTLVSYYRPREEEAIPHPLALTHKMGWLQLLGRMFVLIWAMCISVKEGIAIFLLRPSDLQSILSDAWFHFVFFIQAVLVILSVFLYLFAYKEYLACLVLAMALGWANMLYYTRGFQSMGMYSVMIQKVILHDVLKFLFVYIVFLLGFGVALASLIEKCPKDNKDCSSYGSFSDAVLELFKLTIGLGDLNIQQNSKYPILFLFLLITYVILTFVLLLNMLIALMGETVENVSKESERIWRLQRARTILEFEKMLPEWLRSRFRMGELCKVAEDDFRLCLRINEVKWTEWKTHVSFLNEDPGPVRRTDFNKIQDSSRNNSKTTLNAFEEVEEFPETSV
Briefly: 45Calcium uptake assay: inhibition of 2-APB induced cellular uptake of radioactive calcium in human TRPV3 expressing CHO cells. The class given is cell-based. The settings on record: 2-APB 500 μM; for inhibition at 1 µM: 1.0 μM test compound, read-out: Percentage inhibition at 1.0 μM; for inhibition at 10 µM: 10.0 μM test compound, read-out: Percentage inhibition at 10.0 μM. The source says:
The illustrative examples of the present invention are screened for TRPV3 activity according to a modified procedure described in (a) Tóth, A. et al. Life Sciences 2003, 73, 487-498. (b) McNamara C, R. et al. Proc. Natl. Acad. Sci. U.S.A., 2007, 104, 13525-13530. The screening of the compounds can be carried out by other methods and procedures known to persons skilled in the art.
Screening for TRPV3 Antagonist Using the ^45Calcium Uptake Assay
The inhibition of TRPV3 receptor activation was followed as inhibition of 2-aminoethxydiphenylborate (2-APB) induced cellular uptake of radioactive calcium. Test compounds were dissolved in dimethyl sulfoxide (DMSO) to prepare 20 mM stock solution and then diluted using plain medium with DMEM/F-12 containing 1.8 mM CaCl2 to get desired concentration. Final concentration of DMSO in the reaction was 0.5% (v/v). Human TRPV3 expressing CHO cells were grown in DMEM/F-12 medium with 10% FBS, 1% penicillin-streptomycin solution, 400 μg/mL of G-418. Cells were seeded 24 h prior to the assay in 96 well plates so as to get ˜50,000 cells per well on the day of experiment. Cells were treated with test compounds for 10 minutes followed by addition of 2-APB at a final concentration of 500 μM and 5 μCi/mL ^45Ca^+2 for 4 minutes. Cells were washed and lysed using buffer containing 1% Triton X-100, 0.1% deoxycholate and 0.1% SDS. Radioactivity in the lysate was measured in Packardt Top count after addition of liquid scintillant. Concentration response curves were plotted as a % of maximal response obtained in the absence of test antagonist. IC50 value was calculated from concentration response curve by nonlinear regression analysis using GraphPad PRISM software.
Percentage inhibition at concentrations of 1.0 μM and 10.0 μM are given in the table along with IC50 (nM) values for selected examples.

`COc1cccc(/C=C/c2oc3ccc(Cl)cc3c(=O)c2-c2ccc(C#N)cc2)c1OCC1CC1` [Example 21, 4-{6-Chloro-2-[(E)-2-(2-cyclopropylmethoxy-3-methoxyphenyl)-1-ethenyl]-4-oxo-4H-3-chromenyl}benzonitrile]: the inhibition at 1 µM worked out at 76.4%, the inhibition at 10 µM stood at 87.7% and the negative-log IC50 (pIC50) is 6.00 to 6.82.
For `COc1cccc(/C=C/c2oc3c(F)cc(F)cc3c(=O)c2-c2ccc(C#N)cc2)c1OCC1CC1` [Example 22, 4-{2-[(E)-2-(2-Cyclopropylmethoxy-3-methoxyphenyl)-1-ethenyl]-6,8-difluoro-4-oxo-4H-3-chromenyl}benzonitrile], the inhibition at 1 µM amounted to 40% and the inhibition at 10 µM was 73%.
As to `COc1cccc(/C=C/c2oc3cc(F)c(F)cc3c(=O)c2-c2ccc(C#N)cc2)c1OC1CCCC1` [Example 23, 4-{2-[(E)-2-[2-Cyclopentyloxy-3-methoxyphenyl)-1-ethenyl]-6,7-difluoro-4-oxo-4H-3-chromenyl}benzonitrile], the inhibition at 1 µM is 75.8%, the inhibition at 10 µM is 86.7% and the pIC50 was more than 7.30.
